We go through two compounds from US11402367B2, “Integrated multi-electrode array and trans-endothelial electrical resistance in organ-on-a-chip microsystems” (President and Fellows of Harvard College, priority 2017, dated 2022).

Assay [1] has as its system endothelial layer (HUVECs). It is filed as cell-based, human. Conditions: adherens junction staining; FIGS. 4A-4C, 9A-9B, 10A-10C. How it is done: Cardiomyocytes are seeded at 2*10^6 cell per mL in the basal microchannel, followed by 3 hours to overnight inculcation, before connecting both channels 116, 117, 216, 217 to flow at 60 microliters (“μL”)/hr. Flow is controlled by a peristaltic pump ([…]) and connections re in […] tubing (Cole-Parmer) having a 0.511 inner diameter. […] To challenge the endothelial barrier TNF (Sigma) is added at 2 μg/mL in the bottom microchannel 117, 217 during overnight flow. Isoproterenol (Sigma) 50 nanomolar (“nM”) is added to the endothelial microchannel for 30 minutes followed by MEA measurement. Chips are rinsed in phosphate-buffered saline and fixated in 4% paraformaldehyde (Sigma) for 15 minutes at room temperature. ICC is carried out after permeabilization in phosphate-buffered saline with 0.05-0.1% Triton X-100 (Sigma) and blocking for 30 minutes in 3-5% Bovine Serum Albumin (Jackson ImmunoResearch, West Grove, Pa.) or 10% goat serum in phosphate-buffered saline with 0.05-0.1% Triton-X 100. Primary antibodies are applied in 2% goat serum or 0.5% BSA over-night at 4° C. or at RT The following primary antibodies are used for ICC experiments: mouse anti-vascular endothelial (VE)-cadherin (Abcam, 1:100), alpha-actinin (Abcam, 1:200) Cells are washed three times in phosphate-buffered saline with 0.05-0.1% Triton-X 100, followed by staining with secondary antibody staining for 30-60 min at RT. […]

Assay [2] deals with endothelial layer (HUVECs). Nature of the assay: TEER and capacitance measurement of the endothelial layer in the MEA-TEER Heart-on-Chip. In kind it is cell-based, human. Conditions: for effect on TEER values / endothelial barrier: TNF-α 2 μg/mL overnight, isoproterenol 50 nM, 30 minutes, FIG. 5A, 5B. How it is done:
The MEA-TEER chips are surface-treated with an oxygen plasma (Atto, Diener electronic GmbH, Germany at O2, 15 standard cubic centimeters per minute (“sccm”), 100 Watts, 30 seconds) to create hydrophilic, sterile, flow systems. Both apical and basal channels 116, 117, 216, 217 are coated overnight with human fibronectin (Sigma at 100 micrograms (“μg”/mL in PBS with Mg^2+ and Ca^2+ at 4° C.). HUVECs were seeded at 2*10^6 cell per mL in the apical microchannel, and, then, left static overnight.
(§1) Cardiomyocytes are seeded at 2*10^6 cell per mL in the basal microchannel, followed by 3 hours to overnight inculcation, before connecting both channels 116, 117, 216, 217 to flow at 60 microliters (“μL”)/hr. Flow is controlled by a peristaltic pump (Ismatech) and connections re in Pharmed tubing (Cole-Parmer) having a 0.511 inner diameter. […] To challenge the endothelial barrier TNF (Sigma) is added at 2 μg/mL in the bottom microchannel 117, 217 during overnight flow. Isoproterenol (Sigma) 50 nanomolar (“nM”) is added to the endothelial microchannel for 30 minutes followed by MEA measurement.
TEER measurements are carried out by applying a 10 microamperes (“μA”) sinusoidal excitation signal in a four-electrode set-up in the frequency range 100 KHz-10 hertz (“Hz”). AC measurements are preferable for TEER measurements to avoid charging effects over the cell membranes and the electrodes. The four-electrode set-up, utilizing one opposing pair of electrodes for current excitation and another opposing pair of electrodes for voltage sensing, provides benefits of eliminating contact resistance associated with two electrode measurements.
TEER and capacitance values are derived using the equivalent circuit and model depicted in FIGS. 3A, 6A, and 6B. A resistor Rsol describes the solution conductivity, while the electric response of the endothelial layer is modeled using a resistor (RTEER) and a constant phase element (CPEt) in parallel to extract TEER of the cell-cell junctions, as well as the contribution of cell membrane capacitance and, indirectly, the overall monolayer surface area.

For assay [3], the system named is human induced pluripotent stem cell-derived cardiomyocytes (hiPSC-CMs, Cor.4U). As to the kind of experiment: MEA measurement of cardiac field potentials in the MEA-TEER Heart-on-Chip. Conditions: isoproterenol 50 nM; basal beat rate 60 beats per minute; FIG. 5C. In kind it is cell-based. The text has this:
HUVECs (Lonza) were expanded in EGM media (Lonza) and used at passages 2-6 in the chip experiments. Human induced pluripotent stem cell-derived cardiomyocytes hiPSC-CMs, Cor.4U, Axiogenesis) were handled according to the vendor's instructions and used a passage 1 after thawing. Briefly, cryopreserved cells were thawed on fibronectin-coated cell culture vessels in the presence of 5 […] puromycin to select for MYH6-positive cells. Three hours after thawing, the puromycin containing media was gently refreshed to wash out remaining cryopreservant (DMSO). Twenty-four hours after seeding, cell culture media was refreshed without puromycin. The following day, the cardiomyocytes were replated into the chips using 0.5% trypsin. […]
Spontaneous cardiac field potentials (“FPs”) are recorded from cardiomyocytes using Platinum and Platinum Black MEAs with the commercial Multi-Channel-System USB-MEA60-Inv-BC-System, Multi-Channel-Systems (MCS) GmbH. […] Cardiac FPs are recorded for 120 seconds for each measurement using Cardio2D software and are analyzed with Cardio2D+ (both from Multi Channel Systems). Measured parameters, including FP duration (FPD, milliseconds), peak-to-peak interval (PPI, seconds), beating rate (beats per minute), and conduction velocity (CV, centimer s_1) are exported into Microsoft Excel files for further analysis. […]

The conditions of assay [4]: 100 nM isoproterenol; mono-channel fluidic system; cited from earlier work.
Assay [5] has as its system myocardial tissue (cardiomyocytes). Nature of the assay: Immunohistochemistry of myocardial tissue on the MEA platform (alpha-actinin). In kind it is cell-based, human. Conditions: isoproterenol treatment; FIGS. 4D-4E. The protocol:
as §1
Chips are rinsed in phosphate-buffered saline and fixated in 4% paraformaldehyde (Sigma) for 15 minutes at room temperature. ICC is carried out after permeabilization in phosphate-buffered saline with 0.05-0.1% Triton X-100 (Sigma) and blocking for 30 minutes in 3-5% Bovine Serum Albumin (Jackson ImmunoResearch, West Grove, Pa.) or 10% goat serum in phosphate-buffered saline with 0.05-0.1% Triton-X 100. Primary antibodies are applied in 2% goat serum or 0.5% BSA over-night at 4° C. or at RT […]

The next assay concerns hamster cardiomyocytes. Particulars: TNF-α at 200 nanograms/ml^3; cited from earlier work.

Consider `CC(C)NCC(O)c1ccc(O)c(O)c1` (stereo not shown) [isoproterenol], for which the “integrity of the endothelial barrier by ICC” value in assay [1] is reported as “does not show any change in integrity of a barrier”. Moreover, the “effect on TEER values / endothelial barrier” value in assay [2] was “does not affect the endothelial barrier”. In addition, the “increase in beat rate” value in assay [3] was determined as 60%. In addition, in assay [4], the “change of beat rate” value is 60%. Besides, the “changes of cardiomyocytes by IHC versus control” value in assay [5] is “do not show major changes”.

In the case of TNF-α, the “effect on TEER values / endothelial barrier” value in assay [2] is “TEER values decrease to the same values as ECM-coated chips without cells chip”. Moreover, the “capacitance after the TNF-α challenge” value in assay [2] (TNF-α 2 μg/mL, from 194±33 nF after stabilization at day 2) worked out at 2968±52 nF. The “effect on TEER capacitance” value in assay [2] (TNF-α addition, FIG. 5B) is given as “increasing the capacitance significantly”. Besides, in assay [2] (after 24 hours TNF-α 2 μg/mL, dropping from 230±45 Ω before challenge, p<0.01), the “TEER values after TNF-α challenge” value is 15±13 Ω. Moreover, the “contractility of hamster cardiomyocytes” value in the assay with hamster cardiomyocytes was “reduce contractility”.
